Measured values published in a melting point compilation (Tetko et al.; mined from patent text by program, amines drawn as free bases though some values may be those of a salt).

Structure (SMILES) | melting point [°C]
O=C(C=P(c1ccccc1)(c1ccccc1)c1ccccc1)CSc1ccccc1 | 132 to 134
O=S=c1cc(-c2ccc(Cl)cc2)ss1 | 123 to 125
CC(=O)NC1CCN(c2ncc3ncnc(Nc4ccc(F)c(Cl)c4)c3n2)CC1 | 263 to 265
CCn1c(C(C)NS(=O)(=O)c2ccc(Cl)c(Cl)c2)cnc1Oc1ccc(Cl)cc1 (centres undefined) | 153 to 157
CS(=O)(=O)OCCCc1ccc(OCc2ccccc2)cc1 | 74 to 75
CNN(NC)C(=S)Oc1cc(C)ccc1C(=O)OC | 99.9 to 100
Cc1cc(I)ccc1N=C=S | 51 to 53
C=CCOC(=O)CCCS(=O)C1CC(=O)N1CC(=O)NCCCCCCc1ccc(F)cc1 (centres undefined) | 95 to 96
CC(CNC(c1ccccc1)c1ccccc1)NC(c1ccccc1)c1ccccc1 (centres undefined) | 72 to 75
COc1ccc(N2C(=O)CCN(C)c3ccc(Cl)cc32)cc1 | 144 to 145
Clc1ccc(-c2c(Cc3nc4ccccc4o3)cnn2-c2ccccc2)cc1 | 137 to 139
C#CCN1C(=O)C2(CCCC2)c2ccccc21 | 109 to 111
N#CC(C#N)=C1C=C(c2ccccc2)S(=O)(=O)C(c2cccs2)=C1 | 214 to 232
COc1cccc(NC(=O)c2sccc2S(=O)(=O)Nc2onc(C)c2Br)c1 | 200 to 202
CN1C(=O)C(=O)NCC1(CCOC1CCCCO1)c1ccc(Cl)c(Cl)c1 (centres undefined) | 260
COC(=O)CCCC#Cc1cc(Cl)ccc1NS(=O)(=O)c1ccc2nc(NC(C)=O)sc2c1 | 138 to 140
O=c1c2cn[nH]c2nc2n1CCS2 | > 300
O=[N+]([O-])c1ccc2nc(N3CCNCC3)ccc2c1 | 153
CCn1nccc1NC(=O)c1cc(C(=O)OC)c(O)c2ncc(Cc3ccc(F)cc3)cc12 | 219 to 220
COc1cc(OC)c2c(=O)[nH]c(-c3cc(C)c(OCC(=O)O)c(C)c3)nc2c1 | 270 to 272
C=CCCN(CCC=C)Cc1noc(-c2ncn3c2[C@@H]2CCN2C(=O)c2c(Cl)cccc2-3)n1 | 115 to 120
COC(C)(C)c1ccc(Cl)c2nc3n(c12)CCCN3c1ccc(Cl)cc1Cl | 203 to 204

Structure (SMILES) | melting point [°C]
CSc1c(C(=O)O)ccc(C)c1C | 118 to 120
CCCSCCNC(=O)n1cc(F)c(=O)[nH]c1=O | 112 to 114
CC1(C)CCc2[nH]cc(C(=O)O)c2C1=O | 225 to 228
COc1ccccc1Oc1c(Cl)nc(-c2cccnn2)nc1NS(=O)(=O)CCc1cccc2ccccc12 | 192
COc1ccc(S(=O)(=O)c2ncn(-c3ccccc3)c2-c2ccccc2)cc1 | 157
Cc1c(CO)ncn1CCCNC(C)(C)c1ccc(Cl)cc1 | 97 to 99
CNCCCOc1ccc(-c2nnc(CSCCOc3ccccc3)o2)cc1 | 40 to 44
OC1CCCc2sccc21 (centres undefined) | 58 to 60
COc1cc(C(=O)C2C(=O)N(C)C(=O)N(C)C2=O)ccc1Oc1nc2ccccc2s1 | 210 to 211
CCCCc1nc2c(N)nc3cc(-c4cccnc4)ccc3c2n1CCNC(=O)C(C)C | 228 to 230
CCCCCCN(Cc1ccc2ccccc2n1)C(Nc1cc(C(C)(C)C)c(O)c(C(C)(C)C)c1)=C1C(=O)OC(C)(C)OC1=O | 161 to 163
COC(=O)c1cc(C)cc(CC#N)c1 | 56.2 to 57.8
COc1ccc(N/C(SC)=C(\C#N)C(N)=O)cc1O | 160 to 164
Cc1ccc(F)cc1C(=O)Nc1ccc(C(=O)N2CCc3cn[nH]c3-c3sccc32)c(Cl)c1 | 310 to 312
O=C(/C=C/c1cccc(Cl)c1)NC1CC1 | 112 to 113
CCc1[nH]n(C2CCCC2)c2nc(-n3ccnc3)nc(=O)c1-2 | 228 to 230
O=C(O)c1ccc(-c2ccc3c(c2)CCN(CCN2CCCC2)C3)cc1 | 269 to 271
O=S1(=O)N(CCCN2CC=C(c3ccccc3)CC2)c2cccc3c2N1CCC3 | 120
N=C(N)COc1cccc(Cl)c1Cl | 104 to 108
COC(=O)CN1C(=O)CN=C(c2ccccc2Cl)c2ccccc21 | 166 to 168
COC(=O)CNC(=O)c1cc2c(C(=O)CN(Cc3ccccc3)C(C)(C)C)ccc(OCc3ccccc3)c2[nH]1 | 152
IC(I)=C(I)Cn1ncnn1 | 92 to 93

Now from value to molecule:

melting point [°C] | Structure (SMILES)
140 to 141 | CC(C)(C)c1cnc(C(=O)Nc2cc(-c3cc(NC4CCCNC4)c(=O)[nH]n3)ccc2F)cn1 (centres undefined)
202 | COc1cc2c(cc1OC)CN(CCN(C)Cc1ccc(NC(=O)c3cccc4c(=O)c5cccc(OC)c5[nH]c34)cc1)CC2
191 to 193 | CN1CCN(c2nn(-c3ccc(O)cc3)c3ccccc23)CC1
297 to 300 | O=c1[nH]c(=O)n2c3c1cnn3C(c1cccc(C(F)(F)F)c1)CC2 (centres undefined)
257 | CCOc1cc(-c2cc(C(F)(F)F)n3ncc(-c4cc(C)nc(C)c4)c3n2)ccc1C(F)(F)F
238 | CCCN1Cc2cc(Oc3cccc(NCc4c(C)cc(C)cc4C)c3)ccc2N=C1N
193 to 196 | O=C1CC(c2cccc3ccccc23)c2ccc(O)cc2O1 (centres undefined)
32 | CCCCCCCC1(CCCCCCC)c2ccccc2-c2ccc(Br)cc21
100 to 102 | CCCCCCCc1cc(O)cc2c1C(=O)OC(C)(C)O2
241 to 242 | Nc1ccc(S(=O)(=O)Nc2nnc(S(N)(=O)=O)s2)cc1
100 | CS(=O)(=O)c1ccc(C(O)c2ccc3ccccc3c2)cc1 (centres undefined)
109 to 110 | CSCc1c(N)c(C#N)cc(F)c1F
98 to 99 | c1ccc(-c2cc(OCC3CO3)no2)cc1 (centres undefined)
161 | CN1CCC(OC(c2cccc(SCCNc3c(N)c(=O)c3=O)c2)c2nc3ccccc3[nH]2)CC1 (centres undefined)
105 to 106 | CCCS(=O)(=O)c1cc(C(=O)NCC2CCCN2CC)c(OC)cc1N (centres undefined)
113 to 115 | COc1ccc(COC(=O)CC(=O)Oc2cc(-c3cn4c(n3)sc3ccccc34)ccc2Cl)cc1
89.5 to 90.3 | COc1cc(C=CC(=O)c2cccc(F)c2)cc(OC)c1
98 to 100 | N#Cc1ccc(C(=O)c2ccccc2S)cc1
174 to 175 | COc1ccc2cc([C@H](C)C(=O)OC(C)C(=O)NCC(=O)O)ccc2c1 (some centres undefined)
92 to 94 | CCn1c(Cl)c(C=NO)c(=O)n(CC)c1=O
134 to 138 | COc1ccccc1C(Cn1ccnc1)S(=O)(=O)c1ccc(C(=O)O)cc1 (centres undefined)
191 | CCCCc1cn(Cc2ccc(-c3ccccc3C(=O)OC)cc2)c2cc(C(=O)N3CCCC3)ccc2c1=O
130 | CN(C)C(=O)Sc1ccccc1C(=O)c1ccccc1C#N
178 to 179 | CCCc1c(OC(C)=O)cc2oc3cc(Cl)cn3c(=O)c2c1OC(C)=O
178 to 179 | COc1cc2ncnc(N3CCN(C(=O)NCc4ccsc4)CC3)c2cc1OC
148 to 151 | CCOC(=O)c1cc(NC(=O)C(Cc2ccccc2)NC(=O)OC(C)(C)C)c[nH]1 (centres undefined)
74 | COC(OC)C(=O)C=Cc1ccc(-c2cccs2)s1
41 to 42 | Cc1cc(CCCCCOc2c(C)cc(-c3noc(C(F)(F)F)n3)cc2C)on1

melting point [°C] | Structure (SMILES)
> 200 | CCOC(=O)c1ccc(-c2cnc3c(c2)NC(=O)CN3)cc1
266 to 269 | CN1CCN(c2c(F)cc3c(=O)c(C(=O)O)cn4c3c2N(C)CC4)CC1
48.5 to 50 | CC(=O)OCc1cccc(-c2ccco2)c1C
143 to 148 | O=C1NCCc2c(Cl)cccc21
151 to 155 | COc1cc2c(cc1OC)CN(C(=O)C13CC4CC(CC(C4)C1)C3)CC2
180 to 182 | O=C(Cc1ccccc1C(=O)O)Nc1cccc(/C=C/c2nc(C3CCCCCCC3)cs2)c1
247 to 248 | O=C(Nc1cccc2c1C(=O)c1c-2n[nH]c1[C@H]1CC[C@H](C(=O)N2CCNCC2)CC1)NN1CCOCC1
110 to 112 | COCCONS(=O)(=O)c1ccccc1
86 to 93 | N=C(Cc1ccc(F)cc1)Nc1ncccc1OCc1ccccc1
61 to 64 | CC1(Cc2ccc(O)cc2)OCCO1
159 to 160 | CC1(C)OC=C(CS(=O)(=O)c2ccc(F)cc2)C1=O
73 to 74.5 | O=C1c2ccccc2CN1CCCSc1ccncc1
243 to 246 | O=C1Nc2cccc(-c3ccc(Oc4ccccc4)cc3)c2C12COc1cc3c(cc12)OCCO3 (centres undefined)
205 to 207 | CCOC(=O)c1ccc2c(c1)C(C)(Cl)C(=S)N2 (centres undefined)
238 to 239 | O=C(O)Cn1c(-c2ccccc2)c(Cc2nc3c(F)c(F)cc(F)c3s2)c2ccccc21
116 | CCCCc1nn2ccccc2c1C(=O)c1ccc(C#N)cc1
141 to 142 | Cn1nnnc1C(CO)=C(c1ccc(F)cc1)c1ccc(F)cc1
149 to 151 | O=S1(=O)NCN(C2CCCCCC2)c2cc(Cl)ccc21
126 to 129 | Cc1cc(OCc2ccccc2)ccc1C(=O)O
212 to 214 | COc1cc(C(=O)NS(=O)(=O)c2ccccc2C)ccc1Cc1cccc2ccc(C(=O)NCC(C)C)cc12
87 to 90 | CN(Cc1ccc2c(Br)c(OC(Cc3ccccc3)C(=O)O)ccc2c1)C(=O)c1oc2ccccc2c1CCc1ccccc1 (centres undefined)
127 to 128 | CCCCc1nc(C(O)C(C)C)c(C#N)n1Cc1ccc(-c2ccccc2-c2nnnn2C(c2ccccc2)(c2ccccc2)c2ccccc2)cc1 (centres undefined)
99 to 100 | COc1cc(COc2nn(Cc3ccccc3)cc2CC(=O)O)ccc1OCc1nc(-c2ccccc2)oc1C
155 | O=C(CCc1nc(-c2ccccn2)no1)NC1CCN(Cc2ccc(Cl)c(Cl)c2)CC1
103 | CSC(=N)c1cc(Oc2ccc(C(F)(F)F)cc2Cl)ccc1[N+](=O)[O-]
227 to 230 | CCN1CCN(c2ccc(Nc3cc(-c4cnc5cc[nH]c5c4)cn4ccnc34)nc2)CC1
161 to 163 | COc1ccc(C2=NN(C3CCN(S(=O)(=O)c4ccc(C#N)cc4)CC3)C(=O)C(C)(C)C2)cc1OC
